Data: patent US10829473B2, “Modulators of the cystic fibrosis transmembrane conductance regulator protein and methods of use” (AbbVie Overseas S.Á.R.L., priority 2017, dated 2020)
Where two headings read alike, the source gives them in different places.

Molecular target: T1, F508delCFTR (Homo sapiens, UniProt P13569, DEL508-508)
T1 construct: expressed in transfected cells; host or cells: CFBE41o- human lung derived epithelial cells (CFBE41o-F508delCFTR-HRP), doxycycline-inducible
Test: Cell Surface Expression-Horse Radish Peroxidase (CSE-HRP) Assay;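 on EC50 (with co-corrector): co-corrector chromenyl benzoic acid corrector at 2 or 3 µM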;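 on Maximum % activity (without co-corrector): % of on-plate positive control chromenyl benzoic acid corrector at 2 or 3 µM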
Type: cell-based
Conditions: for Maximum % activity (with co-corrector) / Emax: maximum at any tested concentration; for Emax: read-out: Maximum % activity (without co-corrector)
Procedure, shortened: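 Corrector compounds were given as 8-point 3-fold series from 20 or 30 μM, with or without a 2 μM co-corrector, for 18-24 h at 33 °C. Surface HRP was read by luminol luminescence as % of positive control; variable-Hill-slope sigmoidal fitting gave EC50 from triplicate plates.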

[1] = test compound alone, without co-corrector, read-out: EC50 (without co-corrector)
[2] = with co-corrector, read-out: EC50 (with co-corrector)

T1 sequence (P13569 with tags, fused parts or gaps DEL508-508): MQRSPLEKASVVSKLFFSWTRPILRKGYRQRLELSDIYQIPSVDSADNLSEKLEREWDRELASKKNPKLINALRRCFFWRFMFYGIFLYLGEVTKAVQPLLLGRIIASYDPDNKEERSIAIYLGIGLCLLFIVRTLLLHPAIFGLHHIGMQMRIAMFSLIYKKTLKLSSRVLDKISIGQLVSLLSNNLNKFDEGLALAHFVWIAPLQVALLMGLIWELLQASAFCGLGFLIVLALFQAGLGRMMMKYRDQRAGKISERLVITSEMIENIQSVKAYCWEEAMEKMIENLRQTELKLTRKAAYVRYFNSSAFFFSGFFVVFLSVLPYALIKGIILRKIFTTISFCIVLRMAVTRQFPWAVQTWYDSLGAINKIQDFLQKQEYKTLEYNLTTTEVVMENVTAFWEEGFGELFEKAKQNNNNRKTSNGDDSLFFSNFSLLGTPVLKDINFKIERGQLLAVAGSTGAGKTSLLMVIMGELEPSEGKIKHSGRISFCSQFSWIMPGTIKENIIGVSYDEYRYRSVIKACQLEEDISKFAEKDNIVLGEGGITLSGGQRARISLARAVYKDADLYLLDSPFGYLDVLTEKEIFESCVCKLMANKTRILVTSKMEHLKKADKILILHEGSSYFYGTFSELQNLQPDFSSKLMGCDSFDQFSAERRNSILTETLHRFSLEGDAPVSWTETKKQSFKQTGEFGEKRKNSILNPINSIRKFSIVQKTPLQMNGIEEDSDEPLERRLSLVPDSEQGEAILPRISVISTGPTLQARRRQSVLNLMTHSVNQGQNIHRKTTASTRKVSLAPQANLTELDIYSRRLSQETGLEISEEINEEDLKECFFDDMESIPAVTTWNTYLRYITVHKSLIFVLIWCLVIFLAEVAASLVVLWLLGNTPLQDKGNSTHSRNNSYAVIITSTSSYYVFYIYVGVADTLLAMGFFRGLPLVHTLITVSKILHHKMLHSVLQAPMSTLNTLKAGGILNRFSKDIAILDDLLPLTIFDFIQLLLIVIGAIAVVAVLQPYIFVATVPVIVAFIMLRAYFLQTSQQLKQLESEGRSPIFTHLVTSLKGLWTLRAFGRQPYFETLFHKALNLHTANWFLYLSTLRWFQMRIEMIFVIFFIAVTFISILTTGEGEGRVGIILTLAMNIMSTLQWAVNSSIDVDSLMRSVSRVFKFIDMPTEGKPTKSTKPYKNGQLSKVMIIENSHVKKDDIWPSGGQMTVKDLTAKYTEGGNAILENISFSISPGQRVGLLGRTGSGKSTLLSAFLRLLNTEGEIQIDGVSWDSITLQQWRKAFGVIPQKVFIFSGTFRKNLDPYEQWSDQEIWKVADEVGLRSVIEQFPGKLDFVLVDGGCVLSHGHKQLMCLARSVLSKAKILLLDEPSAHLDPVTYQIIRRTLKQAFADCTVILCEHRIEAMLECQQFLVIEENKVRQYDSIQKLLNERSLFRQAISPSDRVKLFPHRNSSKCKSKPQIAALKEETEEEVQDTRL

SMILES	EC50 [1] [µM]	Maximum % activity (with co-corrector) (with co-corrector)	EC50 [2] [µM]	Emax (without co-corrector) [%]
COc1cccc(C)c1C1(C(=O)NS(=O)(=O)c2cccc3nc(C)ccc23)CC1 [II-50]	3 to 10	+++ (≥350)	< 3	> 150
COc1ccc(C)c(C)c1C1(C(=O)NS(=O)(=O)c2cccc3nc(C)ccc23)CC1 [II-51]	< 3	+++ (≥350)	< 3	> 150
COc1ccc(C2CC2)c(C)c1C1(C(=O)NS(=O)(=O)c2cccc3nc(C)ccc23)CC1 [II-52]	< 3	+++ (≥350)	< 3	> 150
COc1cccc(C)c1C1(C(=O)NS(=O)(=O)c2cccc3c2CCCN3)CC1 [II-53]	3 to 10	+++ (≥350)	< 3	> 150
COc1ccc(Cl)c(OC)c1C1(C(=O)NS(=O)(=O)c2cccc3ncccc23)CC1 [II-54]	< 3	+++ (≥350)	< 3	> 150
COc1cccc(C2(C(=O)NS(=O)(=O)c3cccc4ncccc34)CC2)c1 [II-56]	3 to 10	+++ (≥350)	3 to 10	> 150
COc1ccc(C2CC2)cc1C1(C(=O)NS(=O)(=O)c2cccc3ncccc23)CC1 [II-57]		+++ (≥350)		> 150
COc1ccc(C2CC2)cc1C1(C(=O)NS(=O)(=O)c2cccc3nc(C)ccc23)CC1 [II-60]		+++ (≥350)		> 150
Cc1ccc(C)c(C2(C(=O)NS(=O)(=O)c3cccc4ncccc34)CC2)c1 [II-61]	< 3	+++ (≥350)	< 3	> 150
COc1cc(C)ccc1C1(C(=O)NS(=O)(=O)c2cccc3ncccc23)CC1 [II-63]	< 3	+++ (≥350)	< 3	> 150
COc1c(C)cccc1C1(C(=O)NS(=O)(=O)c2cccc3ncccc23)CC1 [II-64]	3 to 10	+++ (≥350)	< 3	> 150
COc1cc(C2CCC2)cc(OC)c1C1(C(=O)NS(=O)(=O)c2cccc3c2ccn3C)CC1 [II-65]	< 3	+++ (≥350)	< 3	> 150
COc1cc(C2CCC2)cc(OC)c1C1(C(=O)NS(=O)(=O)c2cccc3ccn(C)c23)CC1 [II-66]	< 3	+++ (≥350)	< 3	> 150
COc1cc(C2CCC2)cc(OC)c1C1(C(=O)NS(=O)(=O)c2cccc3cnn(C)c23)CC1 [II-67]	< 3	+++ (≥350)	< 3	> 150
COc1cc(C2CCC2)cc(OC)c1C1(C(=O)NS(=O)(=O)c2cccn3nccc23)CC1 [II-68]	3 to 10	+++ (≥350)	< 3	> 150
COc1cc(C2CCC2)cc(OC)c1C1(C(=O)NS(=O)(=O)c2cccc3nc(C)ccc23)CC1 [II-69]	< 3	+++ (≥350)	< 3	> 150
COc1cc(C2CCC2)cc(OC)c1C1(C(=O)NS(=O)(=O)c2cccc3nc(N)ccc23)CC1 [II-70]	< 3	+++ (≥350)	< 3	> 150
CCc1ccc(OC)c(C2(C(=O)NS(=O)(=O)c3cccc4nc(N)ccc34)CC2)c1 [II-71]	< 3	+++ (≥350)	< 3	> 150
CCc1ccc(OC)c(C2(C(=O)NS(=O)(=O)c3cccc4[nH]ncc34)CC2)c1 [II-72]	< 3	+++ (≥350)	< 3	> 150
CCOc1ccc(C)cc1C1(C(=O)NS(=O)(=O)c2cccc3[nH]ncc23)CC1 [II-74]	< 3	+++ (≥350)	< 3	> 150
Cc1ccc(OC(C)C)c(C2(C(=O)NS(=O)(=O)c3cccc4[nH]ncc34)CC2)c1 [II-75]	< 3	+++ (≥350)	< 3	> 150
COc1cc(C2CCC2)cc(OC)c1C1(C(=O)NS(=O)(=O)c2cccc3[nH]ncc23)CC1 [II-76]	3 to 10	+++ (≥350)	3 to 10	> 150
COc1ccc(C)c(C)c1C1(C(=O)NS(=O)(=O)c2cccc3[nH]ncc23)CC1 [II-77]	< 3	+++ (≥350)	< 3	> 150

SMILES	EC50 [1] [µM]	Maximum % activity (with co-corrector) (with co-corrector)	EC50 [2] [µM]	Emax (without co-corrector) [%]
COc1ccc(C2CC2)c(C)c1C1(C(=O)NS(=O)(=O)c2cccc3[nH]ncc23)CC1 [II-78]	< 3	+++ (≥350)	< 3	> 150
Cc1ccc(OC(C)C)c(C2(C(=O)NS(=O)(=O)c3cccc4[nH]ccc34)CC2)c1 [II-79]	< 3	+++ (≥350)	< 3	> 150
Cc1ccc(C)c(C2(C(=O)NS(=O)(=O)c3cccc4[nH]ccc34)CC2)c1 [II-80]	3 to 10	+++ (≥350)	< 3	> 150
COCC1(c2ccc(OC)c(C3(C(=O)NS(=O)(=O)c4cccc5nc(N)ccc45)CC3)c2)CC1 [II-82]	3 to 10	+++ (≥350)	< 3	> 150
CCOc1ccc(C)cc1C1(C(=O)NS(=O)(=O)c2cccc3nc(OC)ccc23)CC1 [II-83]	< 3	+++ (≥350)	< 3	> 150
CCOc1ccc(C)cc1C1(C(=O)NS(=O)(=O)c2cccc3nc(NC)ccc23)CC1 [II-84]	< 3	+++ (≥350)	< 3	> 150
CCOc1ccc(C)cc1C1(C(=O)NS(=O)(=O)c2cccc3[nH]ccc23)CC1 [II-85]	< 3	+++ (≥350)	< 3	> 150
COc1ccc(C(OC)C(F)(F)F)cc1C1(C(=O)NS(=O)(=O)c2cccc3ncccc23)CC1 (centres unmarked) [II-86]	3 to 10	+++ (≥350)	< 3	> 150
COc1ccc(C(C)OC)cc1C1(C(=O)NS(=O)(=O)c2cccc3ncccc23)CC1 (centres unmarked) [II-87]	3 to 10	+++ (≥350)	< 3	> 150
COc1ccc(C(C)(C)OC)cc1C1(C(=O)NS(=O)(=O)c2cccc3[nH]ccc23)CC1 [II-88]	3 to 10	+++ (≥350)	< 3	> 150
COc1ccc(C2(C)COC2)cc1C1(C(=O)NS(=O)(=O)c2cccc3ncccc23)CC1 [II-89]	3 to 10	+++ (≥350)	3 to 10	> 150
Cc1ccc(OC2COC2)c(C2(C(=O)NS(=O)(=O)c3cccc4nc(N)ccc34)CC2)c1 [II-90]	3 to 10	+++ (≥350)	3 to 10	> 150
COc1cc(C2(C(=O)NS(=O)(=O)c3cccc4[nH]ncc34)CC2)c(OCC(C)C)cn1 [II-91]	3 to 10	+++ (≥350)	< 3	> 150
COC[C@H](C)Oc1ccc(C)cc1C1(C(=O)NS(=O)(=O)c2cccc3ncccc23)CC1 [II-92]	< 3	+++ (≥350)	< 3	> 150
COc1ccc2c(S(=O)(=O)NC(=O)C3(c4cc(C5CC5)cnc4OCC(C)C)CC3)cccc2n1 [II-93]	< 3	+++ (≥350)	< 3	> 150
COc1ccc2c(S(=O)(=O)NC(=O)C3(c4cc(C5CCC5)cnc4OCC(C)C)CC3)cccc2n1 [II-94]	< 3	+++ (≥350)	< 3	> 150
COc1ccc2c(S(=O)(=O)NC(=O)C3(c4cc(C5CC5)cnc4OC(C)C)CC3)cccc2n1 [II-95]	< 3	+++ (≥350)	< 3	> 150
CCOC(C)(C)c1ccc(OC)c(C2(C(=O)NS(=O)(=O)c3cccc4ncccc34)CC2)c1 [II-96]	< 3	+++ (≥350)	< 3	> 150
CCOc1ccc(C(C)(C)OC)cc1C1(C(=O)NS(=O)(=O)c2cccc3ncccc23)CC1 [II-97]	< 3	+++ (≥350)	< 3	> 150
CCc1ccc(OC(F)F)c(C2(C(=O)NS(=O)(=O)c3cccc4ncccc34)CC2)c1 [II-98]	< 3	+++ (≥350)	< 3	> 150
COc1ccc(C(C)(C)OC)cc1C1(C(=O)NS(=O)(=O)c2cccc3nc(C)ccc23)CC1 [II-99]	< 3	+++ (≥350)	< 3	> 150
COc1ccc(C2(OC)CCC2)cc1C1(C(=O)NS(=O)(=O)c2cccc3nc(C)ccc23)CC1 [II-100]	3 to 10	+++ (≥350)	< 3	> 150
